By melting point is commonly meant the temperature of the solid-liquid transition.

The source of these data is patent US6756370B1, “Piperidine alcohols” (Merck Patent GmbH, priority 1999, dated 2004).

pIC50: −log10 of the molar value. Structures can show the parent of a compound that is named as a salt. Where two headings read alike, the source gives them in different places.

Data set [1] addresses T1, 5-HT2A receptors (Rattus norvegicus, UniProt P14842).
T1 construct: Frontal rat cortex is homogenized in ice-cold buffer; from tissue; host or cells: rat frontal cortex homogenate (membrane pellet)
Briefly: 5-HT2A receptor binding test ([3H]ketanserin displacement). The protocol:
For the in-vitro detection of the affinity for 5-HT2A receptors, it is possible to use, for example, the following test (Example A1). The 5-HT2A receptors are exposed to both [^3H]ketanserin (a substance known for its affinity for the receptor) and the test compound. The decrease in the binding of [^3H]ketanserin to the receptor is a sign of the affinity of the test substance for the 5-HT2A receptor. Detection is carried out analogously to the description of J. E. Leysen et al., Molecular Pharmacology, 1982, 21: 301-314 or as also described, for example, in EP 0320983.
Preparation of a suspension of 5-HT2A receptors: Frontal rat cortex is homogenized in ice-cold buffer. The homogenate is centrifuged for 10 minutes at 4° C. and 50,000×[sic]. The pellet is resuspended in 2.5 ml of ice-cold tris buffer, made up with 10 ml of additional buffer and centrifuged as described [lacuna]. The pellet is then resuspended in buffer and diluted to give a homogenate which contains 60 mg of material/ml. 0.1 ml of the suspension, 100 μl of a 5 nM solution of [^3H]ketanserin, 100 μl of a solution of the test compound (concentration in the range from 10^−5 to 10^−10 mol per litre) are added to the incubation tubes and made up to 1 ml with buffer. The tubes are incubated for 15 minutes at 37° C. After termination of the incubation by immersing the tubes in an ice bath, the cooled suspension is filtered through a glass filter in vacuo. The filters are washed 3× with 5 ml of cold buffer and then transferred to scintillation tubes. The filters are analysed by means of liquid scintillation spectrometry in 8 ml of Triton X scintillator fluid.
The IC50 values are indicated for the binding tests.

The test system of data set [2] is DOI-induced head-twitching in mice. As to the kind of experiment: DOI-induced head-twitching in mice (DOI antagonism). The format is in vivo. Conditions: male mice, test compound orally, 30 minutes later 3 mg/kg of DOI intraperitoneally, observed for 15 minutes. The source says:
Serotonin-2(5-HT2)agonists such as 1-(2,5-dimethoxy-4-iodophenyl)-2-aminopropane (DOI) induce sterotypic behaviour patterns such as, for example, head-twitching or ear-scratching in various animals such as, for example, mice or rats (N. A. Darmani et al., Pharmacol. Biochem. Behav. 1989, 36: 901-906; N. A. Darmani et al., Pharmacol. Biochem. Behav. 1990, 37: 95-99; N. A. Darmani et al., Pharmacol. Biochem. Behav. 1994, 48: 383-396; D. L. Willins and H. Y. Meltzer, J. Pharmacol. Exp. Ther., 1997, 282: 699-706).
DOI-induced head-twitching in mice is used in order to test compounds having 5-HT2A antagonistic properties. The test compound is orally administered to male mice. 30 minutes later, 3 mg/kg of DOI is [sic] are administered intraperitoneally. The animals are observed for 15 minutes and the number of head twitches is noted. Quantification of the in vivo antagonistic effect of the test compounds ensues by comparison with the number of head twitches from those investigations in which the animals were only DOI-treated.

The mark [3] stands for this setting: frontal rat cortex homogenate, 15 minutes at 37° C.

T1 sequence (P14842 whole entry): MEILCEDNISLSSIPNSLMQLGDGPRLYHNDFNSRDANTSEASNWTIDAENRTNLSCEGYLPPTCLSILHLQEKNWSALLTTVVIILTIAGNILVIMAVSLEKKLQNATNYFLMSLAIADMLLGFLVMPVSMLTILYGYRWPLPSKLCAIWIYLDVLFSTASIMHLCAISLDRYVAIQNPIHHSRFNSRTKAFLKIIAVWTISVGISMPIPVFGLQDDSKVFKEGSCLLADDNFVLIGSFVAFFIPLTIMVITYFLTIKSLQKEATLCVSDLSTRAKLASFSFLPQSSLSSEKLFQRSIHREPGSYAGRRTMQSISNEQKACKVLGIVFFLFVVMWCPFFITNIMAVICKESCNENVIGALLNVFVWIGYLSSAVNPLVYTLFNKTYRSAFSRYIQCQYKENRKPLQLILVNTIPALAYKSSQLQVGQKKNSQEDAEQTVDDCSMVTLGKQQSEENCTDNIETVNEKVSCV

With `Cc1ccccc1CCN1CCC(C(C)(O)c2ccc(C(F)(F)F)cc2)CC1` (racemic), the pIC50 in data set [1] (setting [3]) was 8.85.

In data set [1] (setting [3]), `CC(O)(c1ccc(F)cc1)C1CCN(CCc2ccc(F)cc2)CC1` (single isomer, unassigned; (+)) [(+)-1-{1-[2-(4-fluorophenyl)ethyl]piperidin-4-yl}-1-(4-fluorophenyl)ethanol, hydrochloride] gave a pIC50 of 9.46.

As to `Cc1nc(CCN2CCC(C(C)(O)c3ccc(F)cc3)CC2)cs1` (racemic), the pIC50 in data set [1] (setting [3]) is 7.18.

`CC(O)(c1ccc(C(F)(F)F)cc1)C1CCN(CCc2ccc(Cl)s2)CC1` (racemic): in data set [1] (setting [3]), the pIC50 is 8.07.

In data set [1] (setting [3]), `CC(O)(c1ccc(F)cc1)C1CCN(CCc2cc(Cl)sc2Cl)CC1` (racemic) gave a pIC50 of 8.66.

On to `COc1cccc(C(O)C2CCN(CCc3ccc(F)cc3)CC2)c1OC` (stereo not drawn) [Comparison from EP 0531410, (+)-α-(2,3-dimethoxyphenyl)-1-[2-(4-fluorophenyl)-ethyl]-4-piperidinemethanol, reference compound], for which the “Inhibition [%], suppression of behaviour elicited (head-twitching in mice), DOI antagonism” value (“Inhibition [%], suppression” for short) in data set [2] was determined as 0%.

With `CC(O)(c1ccccc1)C1CCN(CCc2ccc(F)cc2)CC1.I` (racemic) [R1=4-fluorophenyl, R2=phenyl, HI, rac, 1-{1-[2-(4-fluorophenyl)ethyl]piperidin-4-yl}-1-phenylethanol, hydroiodide], the melting point is 205 to 207 °C. Moreover, the pIC50 in data set [1] (setting [3]) was 9.17.

As for `CC(O)(c1ccccc1)C1CCN(CCc2ccc(Cl)s2)CC1.I` (racemic) [1-{1-[2-(5-chlorothiophen-2-yl)ethyl]piperidin-4-yl}-1-phenylethanol, hydroiodide], the melting point was in the range of 177 to 178 °C. In addition, the pIC50 in data set [1] (setting [3]) is 9.08.

Regarding `CC(O)(c1ccc(F)cc1F)C1CCN(CCc2ccc(F)cc2)CC1` (single isomer, unassigned) [listing 1 of 2 here], the pIC50 in data set [1] (setting [3]) is 5.66.

In data set [1] (setting [3]), `CC(O)(c1ccc(F)cc1F)C1CCN(CCc2ccc(F)cc2)CC1` (single isomer, unassigned) [listing 2 of 2 here] gave a pIC50 of 9.14.

`CC(O)(c1cccc2c1OCCO2)C1CCN(CCc2ccc(F)cc2)CC1.Cl` (racemic) [1-{1-[2-(4-fluorophenyl)ethyl]piperidin-4-yl}-1-(benzo[1,4]dioxan-5-yl)ethanol, hydrochloride] yielded a melting point of 209 to 212 °C. Moreover, the “Inhibition [%], suppression” value in data set [2] was determined as 9%. In data set [1] (setting [3]), this molecule gave a pIC50 of 8.43.

Turning to `CC(O)(c1ccc(Cl)s1)C1CCN(CCc2ccc(F)cc2)CC1` (racemic) [1-{1-[2-(4-fluorophenyl)ethyl]piperidin-4-yl}-1-(5-chlorothiophen-2-yl)ethanol], the melting point was in the range of 159 to 160 °C. Moreover, the “Inhibition [%], suppression” value in data set [2] was 26%. In data set [1] (setting [3]), the pIC50 is 9.12.

`CC(O)(c1ccc(F)cc1)C1CCN(CCc2ccc(Cl)s2)CC1.Cl` (single isomer, unassigned; (+)) [(+)-1-{1-[2-(5-chlorothiophen-2-yl)ethyl]piperidin-4-yl}-1-(4-fluorophenyl)ethanol, hydrochloride]: the melting point is 210 to 211 °C. The “Inhibition [%], suppression” value in data set [2] came to 21%. The molecule also gave a pIC50 in data set [1] (setting [3]) of 8.96.

In data set [1] (setting [3]), `CC(O)(c1ccc(F)cc1)C1CCN(CCc2ccncc2)CC1` (racemic) [R1=4-pyridyl, R2=4-fluorophenyl, rac] gave a pIC50 of 6.66.

Turning to `CC(O)(c1ccc(F)cc1)C1CCN(CCc2ccc(Cl)cc2Cl)CC1` (racemic), the pIC50 in data set [1] (setting [3]) is 8.70.

For the molecule “1-{1-[2-(2,3-dimethoxy-phenyl)ethyl]piperidin-4-yl}-1-(4-fluorophenyl)ethanol, hydroiodide”, the pIC50 in data set [1] (read-out: IC50 values (concentrations in mol/l at which 50% of the radioactive ligands are displaced from the binding sites), frontal rat cortex homogenate, 15 minutes at 37° C.) was 7.96.

Regarding `COc1ccc(CCN2CCC(C(C)(O)c3ccc(F)cc3)CC2)s1` (racemic), the pIC50 in data set [1] (setting [3]) was 7.68.

`CC(O)(c1ccc(F)cc1)C1CCN(CCc2ccc(Br)s2)CC1` (racemic) gave a pIC50 in data set [1] (setting [3]) of 8.41.

The molecule `CC(O)(c1ccc(F)cc1)C1CCN(CCc2ccc(F)cc2)CC1.Cl` (single isomer, unassigned; (-)) [(−)-1-{1-[2-(4-fluorophenyl)ethyl]piperidin-4-yl}-1-(4-fluorophenyl)ethanol, hydrochloride] yielded a melting point of 185 to 186 °C. This molecule showed a pIC50 in data set [1] (setting [3]) of 7.24.

As to `CC(O)(c1ccc(F)cc1)C1CCN(CCc2cccs2)CC1.Cl` (racemic) [1-{1-[2-(thiophen-2-yl)ethyl]piperidin-4-yl}-1-(4-fluorophenyl)ethanol, hydrochloride], the melting point was in the range of 222 to 223 °C.

As to `CC(O)(c1ccc(F)cc1)C1CCN(CCc2ccc(F)cc2F)CC1` (single isomer, unassigned) [listing 1 of 2 here], in data set [1] (setting [3]), the pIC50 is 7.40.

`Cc1ccc(CCN2CCC(C(C)(O)c3ccc(F)cc3)CC2)s1` (racemic) showed a pIC50 in data set [1] (setting [3]) of 9.05.

The molecule `CC(O)(c1ccc(Cl)cc1)C1CCN(CCc2ccc(Cl)s2)CC1.Cl` (racemic) [1-{1-[2-(5-chlorothiophen-2-yl)ethyl]piperidin-4-yl}-1-(4-chlorophenyl)ethanol, hydrochloride] yielded a melting point of 192 to 193 °C. In addition, the “Inhibition [%], suppression” value in data set [2] is reported as 28%. The pIC50 in data set [1] (setting [3]) is 8.59.

`CC(O)(c1ccc(F)cc1)C1CCN(CCc2ccsc2)CC1` (single isomer, unassigned) [listing 1 of 2 here] showed a pIC50 in data set [1] (setting [3]) of 6.60.

Turning to `CC(O)(c1ccc(F)cc1)C1CCN(CCc2ccc(F)cc2F)CC1` (racemic), in data set [1] (setting [3]), the pIC50 is 9.08.

`CC(O)(c1ccc(Cl)cc1)C1CCN(CCc2ccc(F)cc2)CC1.Cl` (racemic) [1-{1-[2-(4-fluorophenyl)ethyl]piperidin-4-yl}-1-(4-chlorophenyl)ethanol, hydrochloride] registered a melting point of 201 to 203 °C. Also, in data set [2], the “Inhibition [%], suppression” value is listed as 96%. The pIC50 in data set [1] (setting [3]) was 8.89.

The molecule `CC(O)(c1ccc(F)cc1F)C1CCN(CCc2ccc(Cl)s2)CC1` (racemic) showed a pIC50 in data set [1] (setting [3]) of 8.26.

In data set [1] (setting [3]), `CC(O)(c1ccc(F)cc1)C1CCN(CCc2ccc(C(F)(F)F)cc2)CC1` (racemic) showed a pIC50 of 7.49.

`CC(O)(c1ccc(F)cc1)C1CCN(CCc2ccc(C#N)cc2)CC1` (racemic) gave a pIC50 in data set [1] (setting [3]) of 7.57.

In data set [1] (setting [3]), `CC(O)(c1ccc(F)cc1)C1CCN(CCc2ccc(Cl)s2)CC1` (racemic) [1-{1-[2-(5-chlorothiophen-2-yl)ethyl]piperidin-4-yl}-1-(4-fluorophenyl)ethanol] gave a pIC50 of 9.16.

On to `CC(O)(c1ccc(F)cc1)C1CCN(CCc2ccsc2)CC1` (racemic), for which, in data set [1] (setting [3]), the pIC50 is 8.66.

As to `Cc1cc(CCN2CCC(C(C)(O)c3ccc(F)cc3)CC2)sc1Cl` (racemic), in data set [1] (setting [3]), the pIC50 is 8.38.

Take `CC(O)(c1ccc(F)cc1)C1CCN(CCc2ccc(F)cc2)CC1` (racemic) [1-{1-[2-(4-fluorophenyl)ethyl]piperidin-4-yl}-1-(4-fluorophenyl)ethanol]: the melting point lay within 122 to 123 °C. The pIC50 in data set [1] (setting [3]) is 8.89.

For the molecule `CC(O)(c1ccc(F)cc1)C1CCN(CCc2ccsc2)CC1` (single isomer, unassigned) [listing 2 of 2 here], in data set [1] (setting [3]), the pIC50 was 8.48.

On to `CC(O)(c1ccc(F)cc1)C1CCN(CCc2ccc(F)cc2F)CC1` (single isomer, unassigned) [listing 2 of 2 here], for which, in data set [1] (setting [3]), the pIC50 was 8.54.
